Measurements as given in US9593305B2, “Differentiation of pluripotent stem cells” (Janssen Biotech, Inc., priority 2008, dated 2017).

Legend:
[1] = test system: H1 human embryonic stem cells; assay: Analog screening with GDF-8 and growth factor/agonist pool (Example 8, Tables 7 and 8); format: cell-based
Description: Briefly, clusters of H1 human embryonic stem cells were grown on reduced growth factor […]™ (Invitrogen; Cat #356231)-coated tissue culture plastic. Cells were passaged using collagenase (Invitrogen; Cat #17104-019) treatment and gentle scraping, washed to remove residual enzyme, and plated with even dispersal at a ratio of 1:1 (surface area) on reduced growth factor […]™-coated 96-well black plates (Packard ViewPlates; PerkinElmer; Cat #6005182) using volumes of 100 μl/well. Cells were allowed to attach as clusters and then recover log phase growth over a 1 to 3 day period, feeding daily with MEF conditioned medium supplemented with 8 ng/ml bFGF (R&D Systems; Cat #233-FB). Plates were maintained at 37° C., 5% CO2 in a humidified box throughout the duration of assay. Growth factors purchased from R&D Systems were EGF (Cat #236-EG), FGF4 (Cat #235-F4), PDGF-A (Cat #221-AA), PDGF-D (Cat #1159-SB), PDGF-A/B (Cat #222-AB). […] Screening was conducted using a library of compounds that were made available as 5 mM stocks in 96-well plate format, solubilized in 100% DMSO (Sigma; Cat #D2650) and stored at −80° C. The compounds were further diluted to an intermediate concentration of 0.2 mM in 50 mM HEPES (Invitrogen; Cat #15630-080), 20% DMSO and stored at 4° C. Test conditions were performed in single wells, feeding on alternate days over a four-day assay period. Primary screening assays were initiated by aspirating culture medium from each well followed by three washes in PBS (Invitrogen; Cat #14190) to remove residual growth factors and serum. On the first day of assay, test volumes of 200 μl per well were added back containing DMEM:F12 base medium (Invitrogen; Cat #11330-032) supplemented with 0.5% FCS (HyClone; […] Cat #1324-WN) plus 2.5 μM compound. All remaining growth factors were tested at a final assay concentration of 50 ng/ml (EGF, FGF4, PDGF-A, PDGF-A/B, VEGF) with the exception of GDF-8 tested at 25 ng/ml. […] Cat #120-14). […] All remaining growth factors were tested at a final assay concentration of 50 ng/ml (EGF, FGF4, PDGF-A, PDGF-A/B, VEGF) with the exception of GDF-8 tested at 25 ng/ml. […] Cat #120-14). Negative control samples contained DMEM:F12 base medium supplemented with 2% FCS. […] At the conclusion of four-days of culture, assay plates were washed twice with PBS (Invitrogen; Cat #14190), fixed with 4% paraformaldehyde (Alexis Biochemical; Cat #ALX-350-011) at room temperature for 20 minutes, then washed three times with PBS and permeabilized with 0.5% Triton X-100 (Sigma; Cat #T8760-2) for 20 minutes at room temperature. Cells were washed again three times with PBS and blocked with 4% chicken serum (Invitrogen; Cat #16110082) in PBS for 30 minutes at room temperature. Primary antibody (goat anti-human SOX17; R&D Systems; Cat #AF1924) was diluted 1:100 in 4% chicken serum and added to each well for one hour at room temperature. Alexa Fluor 488 conjugated secondary antibody (chicken anti-goat IgG; Molecular Probes; Cat #AZ1467) was diluted 1:200 in PBS and added to each sample well after washing three times with PBS. To counterstain nuclei, 4 μg/ml Hoechst 33342 (Invitrogen; Cat #H3570) was added for ten minutes at room temperature. Plates were washed once with PBS and left in 100 μl/well PBS for imaging. Imaging was performed using an IN Cell Analyzer 1000 (GE Healthcare) utilizing the 51008bs dichroic for cells stained with Hoechst 33342 and Alexa Fluor 488. Exposure times were optimized from positive control wells and from untreated negative control wells stained with secondary antibody alone. Images from 15 fields per well were acquired to compensate for any cell loss during the bioassay and subsequent staining procedures. […] Segmentation for the nuclei was determined based on gray-scale levels (baseline range 100-300) and nuclear size. Averages and standard deviations were calculated for each replicate data set. […]

[2] = test system: H1 human embryonic stem cells; assay: Analogue screening in combination with only GDF-8, SOX17 (Example 21, Tables 18 and 19); format: cell-based; set-up: Sox17 Expression: % of positive control / Cell Number: % of positive control: tested at 2.5 µM; settings: compound in combination with GDF8; for Cell Number: Average Total Cell Number / Sox17 Expression: Average Total Intensity: four assay plates; for Cell Number: % of positive control / Sox17 Expression: % of positive control: relative to Activin A/Wnt3a of the same plate
Description: Briefly, clusters of H1 human embryonic stem cells were grown on reduced growth factor Matrigel™ (Invitrogen; Cat #356231)-coated tissue culture plastic. Cells were passaged using collagenase (Invitrogen; Cat #17104-019) treatment and gentle scraping, washed to remove residual enzyme, and plated with even dispersal at a ratio of 1:1 (surface area) on reduced growth factor […]™ (BD Biosciences; Cat #356231)-coated 96-well black plates (Packard ViewPlates; PerkinElmer; Cat #6005182) using volumes of 100 μl/well. Cells were allowed to attach and then recover log phase growth over a 1 to 3 day time period, feeding daily with MEF conditioned medium supplemented with 8 ng/ml bFGF (R&D Systems; Cat #233-FB). Plates were maintained at 37° C., 5% CO2 in a humidified box throughout the duration of assay.
Screening was conducted using a library of the analogue compounds. Compounds from this library were made available as 5 mM stocks in 96-well plate format, solubilized in 100% DMSO (Sigma; Cat #D2650) and stored at −80° C. The library compounds were further diluted to an intermediate concentration of 0.2 mM in 50 mM HEPES (Invitrogen; Cat #15630-080), 20% DMSO and stored at 4° C. Test conditions were performed in triplicate, feeding on alternating days over a four-day assay period. Assays were initiated by aspirating culture medium from each well followed by three washes in PBS (Invitrogen; Cat #14190) to remove residual growth factors. On the first day of assay, test volumes of 200 μl per well were added to each well using DMEM:F12 base medium (Invitrogen; Cat #11330-032) supplemented with 0.5% FCS (HyClone; Cat #SH30070.03) and 200 ng/ml GDF-8 (R&D Systems, Cat #788-G8) plus 2.5 μM compound. On the third day of assay, test volumes of 100 μl per well were added to each well using DMEM:F12 base medium supplemented with 2% FCS plus 200 ng/ml GDF-8 (R&D Systems, Cat #788-G8). Positive control samples contained the same base medium supplemented with FCS and 1000 ng/ml recombinant human activin A (PeproTech; Cat #120-14) throughout the four-day assay along with Wnt3a (20 ng/ml) on days 1 and 2. Negative control samples contained DMEM:F12 base medium supplemented with FCS, adding Wnt3a on days 1 and 2 but omitting treatment with activin A.
At the conclusion of four-days of culture, assay plates were washed twice with PBS (Invitrogen; Cat #14190), fixed with 4% paraformaldehyde (Alexis Biochemical; Cat #ALX-350-011) at room temperature for 20 minutes, then washed three times with PBS and permeabilized with 0.5% Triton X-100 (Sigma; Cat #T8760-2) for 20 minutes at room temperature. Cells were washed again three times with PBS and blocked with 4% chicken serum (Invitrogen; Cat #16110082) in PBS for 30 minutes at room temperature. Primary antibody (goat anti-human SOX17; R&D Systems; Cat #AF1924) was diluted 1:100 in 4% chicken serum and added to each well for one hour at room temperature. Alexa Fluor 488 conjugated secondary antibody (chicken anti-goat IgG; Molecular Probes; Cat #AZ1467) was diluted 1:200 in PBS and added to each sample well after washing three times with PBS. To counterstain nuclei, 4 μg/ml Hoechst 33342 (Invitrogen; Cat #H3570) was added for ten minutes at room temperature. Plates were washed once with PBS and left in 100 μl/well PBS for imaging.
Imaging was performed using an IN Cell Analyzer 1000 (GE Healthcare) utilizing the 51008bs dichroic for cells stained with Hoechst 33342 and Alexa Fluor 488. Exposure times were optimized from positive control wells and from untreated negative control wells stained with secondary antibody alone. Images from 15 fields per well were acquired to compensate for any cell loss during the bioassay and subsequent staining procedures. Measurements for total cell number and total SOX17 intensity were obtained from each well using IN Cell Developer Toolbox 1.7 (GE Healthcare) software. […]

[3] = Plate 1, compound + EGF, FGF, PDGF-A, VEGF, PDGF-D, muscimol, GDF8
[4] = Plate 1, compound + EGF, FGF, PDGF-A, VEGF, PDGF-D, muscimol, GDF8, positive control Activin A/Wnt3a
[5] = Table 8: hits with greater than 25% activity of the positive control, with GDF-8 and growth factors/agonists
[6] = Plate 2, compound + EGF, FGF, PDGF-A, VEGF, PDGF-D, muscimol, GDF8
[7] = Plate 2, compound + EGF, FGF, PDGF-A, VEGF, PDGF-D, muscimol, GDF8, positive control Activin A/Wnt3a

| SMILES | Cell Number, Average Total Cell Number [1, 3] | Sox17 Expression, Average Total Intensity [1, 3] | Cell Number, % of positive control [1, 4] | Sox17 Expression, % of positive control [1, 4] | Cell Number, % of positive control [1, 5] | Sox17 Expression, % of positive control [1, 5] | Sox17 Expression, Average Total Intensity [1, 5] | Cell Number: Average Total Cell Number [2] | Sox17 Expression: Average Total Intensity [2] | Cell Number: % of positive control [2] | Sox17 Expression: % of positive control [2] | Cell Number, Average Total Cell Number [1, 6] | Sox17 Expression, Average Total Intensity [1, 6] | Cell Number, % of positive control [1, 7] | Sox17 Expression, % of positive control [1, 7] |
| --- | --- | --- | --- | --- | --- | --- | --- | --- | --- | --- | --- | --- | --- | --- | --- |
| O=C1NCCCc2cc(ccc2F)-c2ncnc(n2)Nc2cc(Cl)cc(c2)CN2CCCC1C2 (centres unmarked) [Compound 26, 10-Chloro-25-fluoro-3,5,7,14,20,31-hexaazapentacyclo[22.3.1.1˜2,6˜0.1˜8,12˜0.1˜14,18˜]hentriaconta-1(28), 2(31), 3,5,8(30), 9,11,24,26-nonaen-19-one] | 7415 | 8.30E+07 | 55.4 % of positive control | 33.1 % of positive control | 55.4 % of positive control | 33.1 % of positive control | 8.30E+07 | 4896 | 1.65E+07 | 32.6% | 4.8% |  |  |  |  |
| O=C1CCN2CCN(CC2)Cc2cc(ccc2Cl)Nc2ncnc(n2)-c2ccnc(c2)CCCN1 [Compound 27, 4-Chloro-1,8,10,12,17,22,26,32-octaazapentacyclo[24.2.2.1˜3,7˜1.˜9,13˜0.1˜14,18˜1]tritriaconta-3(33), 4,6,9(32), 10,12,14(31), 15,17-nonaen-23-one] |  |  |  |  | 50.9 % of positive control | 30.8 % of positive control | 8.81E+07 | 3721 | 1.19E+07 | 26.7% | 3.9% | 8044 | 8.81E+07 | 50.9 % of positive control | 30.8 % of positive control |
| CN1CCCc2cccc(c2)-c2ncnc(n2)Nc2cccc(c2)CCNC(=O)C1 [Compound 28, 18-Methyl-3,5,7,15,18,28-hexaazatetracyclo[20.3.1.1˜2,6˜0.1˜8,12˜]octacosa-1(26), 2(28), 3,5,8(27), 9,11,22,24-nonaen-16-one] |  |  |  |  | 48.0 % of positive control | 30.7 % of positive control | 8.77E+07 | 5236 | 4.03E+07 | 37.5% | 13.1% | 7591 | 8.77E+07 | 48.0 % of positive control | 30.7 % of positive control |
| O=C1NCCc2cccc(c2)Nc2ncnc(n2)-c2cccc(c2)CCCN2CCC1CC2 [Compound 31, 1,11,13,15,23,31-Hexaazapentacyclo[23.2.2.1˜5,9˜0.1˜10,14˜0.1˜16,20˜]dotriaconta-5(32), 6,8,10(31), 11,13,16(30), 17,19-nonaen-24-one] | 6957 | 6.59E+07 | 51.9 % of positive control | 26.3 % of positive control | 51.9 % of positive control | 26.3 % of positive control | 6.59E+07 | 3619 | 1.36E+07 | 24.1% | 3.9% |  |  |  |  |
